ChEMBL document CHEMBL1955819, “Ketoolivosyl-tetracenomycin C: a new ketosugar bearing tetracenomycin reveals new insight into the substrate flexibility of glycosyltransferase ElmGT” (2012)
Activity calls are given as the source filed them. The calls are words filed in the database; no cut-off is given here.

Key:
Streptomyces prasinus = experiment: Antimicrobial activity against Streptomyces prasinus at 1 mg/mL by disc diffusion assay; format: functional; conditions: read-out: DIZ
Escherichia coli = experiment: Antimicrobial activity against Escherichia coli XL1-blue at 1 mg/mL by disc diffusion assay; format: functional, organism-based
Rhizomucor miehei = experiment: Antimicrobial activity against Mucor miehei at 1 mg/mL by disc diffusion assay; format: functional, organism-based

| Compound | zone of inhibition at 1000 µg/mL (Streptomyces prasinus) | Activity (Escherichia coli) | Activity (Rhizomucor miehei) |
| --- | --- | --- | --- |
| COC(=O)c1c(O[C@@H]2O[C@@H](C)[C@H](OC)[C@@H](OC)[C@H]2OC)cc2cc3c(c(O)c2c1C)C(=O)[C@]1(OC)C(=O)C=C(OC)[C@@H](O)[C@]1(O)C3=O [ELLORAMYCIN] | 25 mm | – | – |
| COC(=O)c1c(O[C@H]2C[C@H](O)C(=O)[C@H](C)O2)cc2cc3c(c(O)c2c1C)C(=O)[C@]1(O)C(=O)C=C(OC)[C@@H](O)[C@]1(O)C3=O | 12 mm | inactive | inactive |
